# Reference: patent US8546323B2, “Thrombospondin-1 derived peptides and treatment methods” (priority 2005, dated 2013)
# “Also recorded” adds a separate entry of the source.
# Columns and labels:
# TGF-β1 [1] = conditions: TSP-1 knockout mouse; cited from earlier work
# TGF-β1 [2] = target: T1, TGF-β1 (Mus musculus, UniProt P04202); test: synthetic peptide in tissue culture: TGF-β1 activation; assay type: cell-based
# T1 construct: endogenous in cells; host or cells: Tissue culture
# Text: (§1) As such we have identified the two active sites in TSP-1 important for both (1) decreasing MMP-9 activity (2) and activating TGF-β1. Using this knowledge, many peptides having plaque stabilizing properties can be designed and synthesized. We designed and synthesized a representative synthetic sequence combining these two active sites: KRFKQDDGWSPWSEW (SEQ ID NO: 10).
# MMP-9 [3] = test: synthetic peptide in tissue culture: inhibition of MMP-9 activation; assay type: cell-based
# Text: as §1
# atherosclerotic plaque [4] = test: peptide infusion (alzet pump) in TSP−/−ApoE−/− mice, atherosclerotic lesion composition; assay type: in vivo, mouse
# Text: Generally, “stabilized plaque” is evidenced by limited inflammation at the site of the lesion and/or significant fibrosis within the plaque. These features may be observed by a comparison a TSP-1 deficient control system such as the TSP−/− mice described above. Generally, stabilized plaque may be identified by a comparison of fibrosis and inflammation in treated and untreated animals. The balance between fibrosis and inflammation within the plaque has been a well accepted surrogate marker for propensity of plaque to rupture in multiple different animal models.
# atherosclerotic plaque [5] = test: peptide infusion in apoE−/− mice, atherosclerotic plaque; assay type: in vivo, mouse
# [6] = system: binding of TSP-1 to macrophages; test: cell adhesion assay: macrophage adhesion to TSP-1-coated wells, competition by peptides; assay type: cell-based, murine; conditions: wells pre-plated with TSP-1 (40 microg./ml); cells mixed with peptide (0.01M) for 30 minutes
# Procedure: For the peptide experiment, the cells were mixed in suspension with respective peptide (0.01M) for 30 minutes prior to being introduced to TSP-1 wells.
# TSP-1 has multiple potential binding sites for binding macrophages including CD44, IAP, and CD36 (FIG. 1). However there has been no previously established β2-integrin binding motif described in TSP-1. A prior-study using phage sequence assays has reported that the peptide motif D(D/E)(G/L)W (SEQ ID NO: 7) competes with pro-MMP-9 binding to β2-integrin [40]. Through a sequence search of the complete TSP-1 peptide sequence we have determined that TSP-1 has two such putative β2 integrin binding sites: one in TSR-1-(DDGW (SEQ ID NO: 3), a perfect consensus) and another in TSR-2 (DGGW SEQ ID NO: 3), a close consensus with substitution in position 2) as shown in FIG. 2. We have used cell adhesion assay to assess binding of TSP-1 to macrophages (FIG. 6). Using this assay we have been able to show the impact of the D-Xaa-G-W (SEQ ID NO: 5) motif in TSP-1 adhesion to macrophages.
# MMP-9 [7] = test: transient transfection of RAW macrophage cells, active MMP-9/total MMP-9 ELISA; assay type: cell-based, mouse; conditions: RAW cells transiently transfected with TSP-1 or TSP-1 mutant; for mutants: fate of the TSP-1 effect
# Text: (§2) (A) There are two putative β2 integrin binding domain in TSR-1 and TSR-2. Note that these two binding domains are adjacent (and overlap by one amino acid) the two binding domains for TGF-β1. We have mutated the two DxGW motifs as shown in the box. […] This effect is abolished by TSP mutants: DM and less so by Mut1. […] This affect is abolished with both TSP-1 mutants Mut1 and Mut2. In summary the DxGW motif in TSR-1 and TSR-2 appear to mediate the effects on of TSP-1 on TGF-β1 activation and MMP-9 inhibition in this cell assay system.
# We have shown TSP-1 binding, to macrophages through the same motif and we postulate one potential mechanism for TSP-1 inhibition, of MMP-9 activity may involve displacement of pro-MMP-9 from cell surface (FIG. 7) by competition for binding. To test this hypothesis we generated various mutants of TSP-1 involving either or both potential β2-intergin binding motif in TSP-1 (FIG. 2). […] This effect was reversed by mutation of the TSR-1 motif but less so with mutation of the TSR-2 motif.
# TGF-β1 [8] = test: transient transfection of RAW macrophage cells, luciferase induction via TGF-β1 promoter responsive element; assay type: cell-based, mouse; conditions: RAW cells transiently transfected with TSP-1 or TSP-1 mutant; cell lysate luciferase; for mutants: fate of the TSP-1 effect
# Text: as §2
# Furthermore, using our mutants we have observed that WSPW (SEQ ID NO: 9) motif in TSR-2 is primarily responsible for TGF-β1 activation by TSP-1.
# [9] = 8-25 μg per day for 5 weeks, versus untreated TSP−/− mice
# T1 sequence (P04202 30-278 limits assumed): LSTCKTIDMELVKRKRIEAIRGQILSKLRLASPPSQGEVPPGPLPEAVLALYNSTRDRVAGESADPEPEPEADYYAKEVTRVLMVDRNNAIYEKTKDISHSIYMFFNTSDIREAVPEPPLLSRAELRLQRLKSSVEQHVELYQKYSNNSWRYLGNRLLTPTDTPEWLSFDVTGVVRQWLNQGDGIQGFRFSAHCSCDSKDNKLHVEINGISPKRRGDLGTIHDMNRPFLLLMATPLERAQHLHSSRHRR
substance,measurement,setting,value
KRFK,rescue of TSP-1 knockout phenotype (localized alveolar inflammation and chronic pneumonia),TGF-β1 [1],rescues this phenotype
KRFKQDDGWSPWSEW,ability to activate TGF-β1,TGF-β1 [2],activate TGF-β1
same,ability to inhibit activation of MMP-9,MMP-9 [3],inhibit activation of MMP-9
same,inflammation (macrophages) in the intimal lesion,atherosclerotic plaque [4]; [9],decreased inflammation (macrophages) in the intimal lesion
same,lipid deposition within the intimal lesions,atherosclerotic plaque [4]; [9],decreased lipid deposition within the intimal lesions
same,matrix (collagen and elastin) deposition within the lesion,atherosclerotic plaque [4]; [9],increased matrix (as measured by collagen and elastin) deposition within the lesion
same,"rescue of the phenotype of TSP−/−ApoE−/− mice (decrease macrophages, increase matrix within the lesion)","atherosclerotic plaque [4]; alzet infusion pump, 8-25 μg per day for 5 weeks",sufficient to rescue the phenotype
same,plaque stabilizing activity,atherosclerotic plaque [4]; mouse model of atherosclerosis,active in stabilizing plaque
same,plaque stabilization in presence of endogenous TSP-1,atherosclerotic plaque [5],beneficial effect
DDGA (DGGW),interference with macrophage adhesion to TSP-1,[6],lack of interference
ADGW,interference with macrophage adhesion to TSP-1,[6],partial interference
"TSP-1: matricellular protein thrombospondin-1, a trimer with a chain molecular mass of 150 kda","MMP-9 activity (active MMP-9/total MMP-9), conversion of pro-MMP-9 to the active form",MMP-9 [7],decreases MMP-9 activity; also recorded: decreased conversion of pro-MPP-9 to the active form
same,TGF-β1 activity,TGF-β1 [8],increases TGF-β1 activity; also recorded: activates TGF-β1
DDGW,interference with macrophage adhesion to TSP-1,[6],sufficient to inhibit cell adhesion to TSP-1
